According to US11077126B2 (priority 2017, dated 2021):

Tests used:
[1] = system: transplanted tumor of human colon cancer HT-29 cells; assay: Human colon cancer in nude mice model; conditions: HT-29 nude mice; 30 mg/kg i.g. 30 d
Procedure: (§1) Then cell concentration was adjusted to 1×10^7/ml with matrigel, then each nude mouse was inoculated subcutaneously with 0.2 ml of cells at its right armpit and recorded as the first day of inoculation. […] Each group was continuously administered intragastrically for 30 days with a dose of 20 ml/kg. The mice were sacrificed the next day after drug withdrawal and the indicators were tested. The long diameter and short diameter of the tumor, and the body weight of each mouse were recorded every 3 days from drug administration to nude mouse sacrifice.
(§2) The body weight of the nude mice and the long diameter (a) and short diameter (b) of the transplanted tumor were measured every 3 days, and the tumor volume (v), relative tumor volume (RTV) and relative tumor proliferation rate (T/C) are calculated respectively according to the following formulas, wherein V=a×b^2/2; RTV=V/V0 (V0 is the tumor volume before administration, V is the tumor volume before sacrifice), and T/C (%)=treatment group RTV/model control group RTV×100%.
(§3) Each mouse was weighed and sacrificed. After the tumor was completely stripped off from the body of the mouse, the non-tumor tissues such as blood stains and fat were removed to weigh the tumor and calculate the tumor growth inhibition rate. The average tumor weight of each group of mice is used as an indicator of efficacy. Tumor growth inhibition rate (%)=(1−the average tumor weight of the treatment group/the average tumor weight of the model group)×100%.

[2] = system: transplanted tumor of human prostate cancer PC3 cells; assay: Human prostate cancer in nude mice model; conditions: 30 mg/kg i.g. 30 d
Procedure: as §1, with “matrigel, and” for “matrigel,”
as §2, §3

[3] = system: NK cell activity of spleen cells against K562 cells; assay: Natural killer (NK) cell activity of Lewis lung cancer tumor-bearing mice; format: in vivo, C57BL/6 mouse
Procedure: The serum-free RPMI 1640 medium was placed in a dish, and then the dish was placed on ice. The spleen was aseptically taken and gently ground with a sterile glass slide to prepare a single cell suspension. The single cell suspension was filtered with a double-layer sterile gauze, washed twice with serum-free RPMI 1640 medium, and centrifuged at 1,500 rpm for 5 min to remove the obtained supernatant. 2 mL of red blood cell lysate was added to the treated suspension, the mixture was allowed to stand for 2 min, and then 8 mL of RPMI 1640 medium was added, centrifuging was performed at 1,500 rpm for 5 min to remove the obtained supernatant, and then washing was performed twice with the RPMI 1640 medium. Trypan blue staining was performed to count the number of live cells, and the cell viability was more than 95%. […]
The spleen cell suspension was taken, and the cell density was adjusted to 1×10^7/mL (effector cells). […] Each mouse was set with: A. effector cells:target cell well (quantity ratio 20:1) to which 20 μL of spleen cell suspension and 100 μL of K562 cell suspension were added; B. an effector cell control well, to which 100 μL of spleen cell suspension and 100 μL of RPMI 1640 medium were added; and C. a target cell control well, to which 100 μL of K562 cell suspension and 100 μL of RPMI 1640 medium were added. […]

[4] = system: transplanted tumor of human pancreatic cancer PANC-1 cells; assay: Human pancreatic cancer in nude mice model
Procedure: as §1, with “matrigel, and” for “matrigel,”
as §2, with “RTV×100%” for “RTV×100%.”
as §3

[5] = system: transplanted tumor of human large cell lung cancer H1299 cells; assay: Human large cell lung cancer (H1299) in nude mice model; conditions: 30 mg/kg i.g. 30 d
Procedure: as §1, §2, §3

[6] = PANC-1 nude mice, 30 mg/kg i.g. 30 d

With O=P1(N(CCCl)CCCl)NCCCO1 (stereo not shown) [Cyclophosphamide] the “Body Weight (g)(d1)” value [1] was 23.76 ± 01.11 g, the “Body Weight (g)(d30)” value [1] was 21.52 ± 01.32 g and the “Inhibition Rate (%)” value [1] was 67.38%. For the same compound, the “Relative Tumor Proliferation Rate(T/C)” value [1] was 25.71%, the “Relative Tumor Volume (RTV)” value [1] was 5.21 ± 0.70 and the “Tumor Volume (mm3) (d1)” value [1] was 156.61 ± 5.92 mm3. For the same compound, the “Tumor Volume (mm3) (d30)” value [1] was 816.17 ± 21.03 mm3, the “Tumor Weight” value [1] was 0.40 ± 0.03 g and the “Body Weight (g)(d1)” value [2] was 19.32 ± 0.25 g. For the same compound, the “Body Weight (g)(d30)” value [2] was 18.68 ± 1.21 g, the “Inhibition Rate (%)” value [2] was 70.06% and the “Relative Tumor Proliferation Rate(T/C)” value [2] was 23.29%. The “Relative Tumor Volume (RTV)” value [2] was 4.67 ± 0.82, the “Tumor Volume (mm3) (d1)” value [2] was 108.68 ± 13.62 mm3 and the “Tumor Volume (mm3) (d30)” value [2] was 507.88 ± 87.93 mm3. The “Tumor Weight” value [2] was 0.56 ± 0.4 g, the “NK Cell Activity (%)” value ([3]; 26 mg/kg, n = 6) was 25.4 ± 6.6 % and the “NK cell activity compared with the control group” value ([3]; cyclophosphamide, P<0.05) was “significantly lower”. The “Relative Tumor Proliferation Rate(T/C)” value ([4]; 30 mg/kg) was 54.55%, the “Relative Tumor Volume (RTV)” value ([4]; 30 mg/kg) was 5.54 ± 0.72 and the “Tumor Volume (mm3) (d1)” value ([4]; 30 mg/kg, d1) was 93.73 ± 8.27 mm3. The “Tumor Volume (mm3) (d30)” value ([4]; 30 mg/kg, d30) was 515.49 ± 32.36 mm3, the “Body Weight (g)(d1)” value [4, 6] was 21.89 ± 1.88 g and the “Body Weight (g)(d30)” value [4, 6] was 19.92 ± 1.68 g. The “Inhibition Rate (%)” value [4, 6] was 80.43%, the “Tumor Weight” value [4, 6] was 0.73 ± 0.09 g and the “Body Weight (g)(d1)” value [5] was 20.92 ± 0.59 g. The “Body Weight (g)(d30)” value [5] was 18.82 ± 0.52 g, the “Inhibition Rate (%)” value [5] was 68.59% and the “Relative Tumor Proliferation Rate(T/C)” value [5] was 31.47%. The “Relative Tumor Volume (RTV)” value [5] was 6.13 ± 0.82, the “Tumor Volume (mm3) (d1)” value [5] was 115.38 ± 13.82 mm3 and the “Tumor Volume (mm3) (d30)” value [5] was 707.28 ± 26.96 mm3. The “Tumor Weight” value [5] was 0.56 ± 0.11 g.
